Target: T1, human M1 receptor (hCHRM1) (Homo sapiens, UniProt P11229)
T1 construct: expressed in transfected cells
T1 sequence (P11229 1-460): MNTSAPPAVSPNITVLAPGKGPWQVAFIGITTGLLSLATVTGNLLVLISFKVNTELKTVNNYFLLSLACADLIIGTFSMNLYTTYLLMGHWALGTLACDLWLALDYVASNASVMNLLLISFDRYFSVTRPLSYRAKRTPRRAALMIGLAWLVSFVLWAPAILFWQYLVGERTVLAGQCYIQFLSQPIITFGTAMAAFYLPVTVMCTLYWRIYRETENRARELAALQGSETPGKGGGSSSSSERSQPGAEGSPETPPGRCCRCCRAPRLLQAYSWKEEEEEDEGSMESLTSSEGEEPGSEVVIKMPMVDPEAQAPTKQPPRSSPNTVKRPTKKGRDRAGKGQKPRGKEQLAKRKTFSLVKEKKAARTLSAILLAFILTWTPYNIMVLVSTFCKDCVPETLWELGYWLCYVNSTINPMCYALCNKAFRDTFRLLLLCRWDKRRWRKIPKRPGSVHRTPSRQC
Assay: Measurement of M1 receptor positive allosteric modulator (M1PAM) activity, calcium fluorescence (FLIPRtetra) with acetylcholine at EC20
Format: cell-based
Conditions: for activity (%) at 10 μM: 10 μM test compound, 100% = acetylcholine 1 μM, 0% = DMSO, acetylcholine at EC20; for EC50: inflection point of concentration-dependent curve, CHO-K1 cells expressing hCHRM1, acetylcholine at EC20 (final 0.6-0.8 nM), read-out: IP value
Experimental: The activity of a test compound in the presence of acetylcholine at EC20 concentration (final concentration 0.6-0.8 nM), which affords an action corresponding to about 20% of the maximum activity, was measured as PAM activity. The method is as follows. CHO-K1 cells stably expressing a human M1 receptor (hCHRM1) were plated on a 384-well black clear bottom plate (BD Falcon) at 5,000 cells/well, and cultured in an incubator at 37° C., 5% CO2 for 1 day. The medium in the cell plate was removed, and assay buffer A (Recording medium (DOJINDO LABORATORIES), 0.1% BSA (Wako Pure Chemical Industries, Ltd.), 2.5 μg/mL Fluo-4 AM (DOJINDO LABORATORIES), 0.08% Pluronic F127 (DOJINDO LABORATORIES), 1.25 mM probenecid (DOJINDO LABORATORIES)) containing a calcium indicator was added at 30 μL/well. The cells were left standing in the incubator at 37° C., 5% CO2 for 30 min, and further left standing at room temperature for 30 min. A test compound prepared by diluting with assay buffer B (HBSS (Invitrogen), 20 mM HEPES (Invitrogen), 0.1% BSA) containing 2.4-3.2 nM acetylcholine was added at 10 μL/well, and the fluorescence was measured by FLIPRtetra (Molecular Devices) for 1 min every 1 second. With the definition that the amount of change in the fluorescence on addition of acetylcholine (final concentration 1 μM) is 100% and that on addition of DMSO instead of a test compound is 0%, the activity (%) of the test compound was calculated, and the inflection point in the concentration-dependent curve of the test compound was calculated as IP values.

activity (%) at 10 μM [%] | EC50 [nM] | Compound
95 | 37 | Cc1cc2c(cc1Cc1ccc(-n3cccn3)cc1)C(=O)N([C@H]1CCC[C@@H]1O)C2 (racemic) [Example 33, rac-2-(trans-2-hydroxycyclopentyl)-5-methyl-6-(4-(1H-pyrazol-1-yl)benzyl)isoindolin-1-one]
108 | 18 | Cc1c(Cc2ccc(-n3cccn3)cc2)cc2c(c1C)CN([C@H]1CCC[C@@H]1O)C2=O (racemic) [Example 34, rac-2-(trans-2-hydroxycyclopentyl)-4,5-dimethyl-6-(4-(1H-pyrazol-1-yl)benzyl)isoindolin-1-one]
103 | 3.9 | Cc1c(Cc2ccc(-n3cccn3)cc2)cc2c(c1C)CN([C@H]1COCC[C@@H]1O)C2=O (racemic) [Example 35, rac-2-(trans-4-hydroxytetrahydro-2H-pyran-3-yl)-4,5-dimethyl-6-(4-(1H-pyrazol-1-yl)benzyl)-2,3-dihydro-1H-isoindol-1-one]
97 | 37 | Cc1cc2c(cc1Cc1ccc(-c3cn(C)nc3C)nc1)C(=O)N([C@H]1CCC[C@@H]1O)C2 (racemic) [Example 40, rac-6-((6-(1,3-dimethyl-1H-pyrazol-4-yl)pyridin-3-yl)methyl)-2-(trans-2-hydroxycyclopentyl)-5-methylisoindolin-1-one]
97 | 30 | Cc1cc(-c2ccc(Cc3cc4c(cc3C)CN([C@H]3CCC[C@@H]3O)C4=O)cn2)ccn1 (racemic) [Example 41, rac-2-(trans-2-hydroxycyclopentyl)-5-methyl-6-((2′-methyl-2,4′-bipyridin-5-yl)methyl)isoindolin-1-one]
115 | 9.2 | Cc1cc2c(cc1Cc1ccc(-c3ccn(C)n3)nc1)C(=O)N([C@H]1CCCC[C@@H]1O)C2 (racemic) [Example 42, rac-2-(trans-2-hydroxycyclohexyl)-5-methyl-6-((6-(1-methyl-1H-pyrazol-3-yl)pyridin-3-yl)methyl)isoindolin-1-one]
110 | 98 | Cc1cc2c(cc1Cc1ccc(-c3ccn(C)n3)nc1)C(=O)N([C@H]1CCC[C@@H]1O)C2 (racemic) [Example 43, rac-2-(trans-2-hydroxycyclopentyl)-5-methyl-6-((6-(1-methyl-1H-pyrazol-3-yl)pyridin-3-yl)methyl)isoindolin-1-one]
99 | 3 | Cc1cc2c(cc1Cc1ccc(-c3cn(C)nn3)cc1)C(=O)N([C@H]1CCCC[C@@H]1O)C2 (racemic) [Example 47, rac-2-(trans-2-hydroxycyclohexyl)-5-methyl-6-(4-(1-methyl-1H-1,2,3-triazol-4-yl)benzyl)isoindolin-1-one]
102 | 31 | Cc1cc2c(cc1Cc1ccc(-c3cn(C)nn3)cc1)C(=O)N([C@H]1CCC[C@@H]1O)C2 (racemic) [Example 48, rac-2-(trans-2-hydroxycyclopentyl)-5-methyl-6-(4-(1-methyl-1H-1,2,3-triazol-4-yl)benzyl)isoindolin-1-one]
86 | 42 | Cc1cc2c(cc1Cc1ccc(-c3ccn(C)n3)cc1)C(=O)N([C@H]1CCC[C@@H]1O)C2 (racemic) [Example 51, rac-2-(trans-2-hydroxycyclopentyl)-5-methyl-6-(4-(1-methyl-1H-pyrazol-3-yl)benzyl)isoindolin-1-one]
103 | 28 | Cc1cc2c(cc1Cc1ccc(-c3cn(C)nn3)cc1F)C(=O)N([C@H]1CCC[C@@H]1O)C2 (racemic) [Example 53, rac-6-(2-fluoro-4-(1-methyl-1H-1,2,3-triazol-4-yl)benzyl)-2-(trans-2-hydroxycyclopentyl)-5-methylisoindolin-1-one]
101 | 98 | Cc1cc2c(cc1Cc1ccc(-c3cn(C)nc3C)cc1)C(=O)N([C@H]1CCC[C@@H]1O)C2 (racemic) [Example 55, rac-6-(4-(1,3-dimethyl-1H-pyrazol-4-yl)benzyl)-2-(trans-2-hydroxycyclopentyl)-5-methylisoindolin-1-one]
100 | 34 | CCc1cc2c(cc1Cc1ccc(-n3cccn3)cc1)C(=O)N([C@H]1CCC[C@@H]1O)C2 (racemic) [Example 59, rac-5-ethyl-2-(trans-2-hydroxycyclopentyl)-6-(4-(1H-pyrazol-1-yl)benzyl)isoindolin-1-one]
99 | 45 | CCc1cc2c(cc1Cc1ccc(-c3ccn(C)n3)cc1)C(=O)N([C@H]1CCC[C@@H]1O)C2 (racemic) [Example 63, rac-5-ethyl-2-(trans-2-hydroxycyclopentyl)-6-(4-(1-methyl-1H-pyrazol-3-yl)benzyl)isoindolin-1-one]
104 | 22 | Cn1cc(-c2ccc(Cc3cc4c(cc3C3CC3)CN([C@H]3CCC[C@@H]3O)C4=O)cc2)nn1 (racemic) [Example 64, rac-5-cyclopropyl-2-(trans-2-hydroxycyclopentyl)-6-(4-(1-methyl-1H-1,2,3-triazol-4-yl)benzyl)isoindolin-1-one]
93 | 26 | Cc1cc2c(cc1Cc1ccc(-c3cnn(C)c3)cc1)C(=O)N([C@H]1CCC[C@@H]1O)C2 (racemic) [Example 67, rac-2-(trans-2-hydroxycyclopentyl)-5-methyl-6-(4-(1-methyl-1H-pyrazol-4-yl)benzyl)isoindolin-1-one]
95 | 13 | Cc1c(Cc2ccc(-c3cnn(C)c3)cc2)cc2c(c1C)CN([C@H]1CCC[C@@H]1O)C2=O (racemic) [Example 69, rac-2-(trans-2-hydroxycyclopentyl)-4,5-dimethyl-6-(4-(1-methyl-1H-pyrazol-4-yl)benzyl)isoindolin-1-one]
100 | 56 | Cc1c(Cc2ccc(-c3ccn(C)n3)cc2F)cc2c(c1C)CN([C@H]1CCC[C@@H]1O)C2=O (racemic) [Example 71, rac-6-(2-fluoro-4-(1-methyl-1H-pyrazol-3-yl)benzyl)-2-(trans-2-hydroxycyclopentyl)-4,5-dimethylisoindolin-1-one]
97 | 23 | Cn1cc(-c2ccc(Cc3cc4c(cc3Cl)CN([C@H]3CCCC[C@@H]3O)C4=O)cc2)cn1 (racemic) [Example 75, rac-5-chloro-2-(trans-2-hydroxycyclohexyl)-6-(4-(1-methyl-1H-pyrazol-4-yl)benzyl)isoindolin-1-one]
95 | 8.8 | Cc1c(Cc2ccc(-n3cccn3)cc2)cc2c(c1F)CN([C@H]1CCCC[C@@H]1O)C2=O (racemic) [Example 78, rac-4-fluoro-2-(trans-2-hydroxycyclohexyl)-5-methyl-6-(4-(1H-pyrazol-1-yl)benzyl)isoindolin-1-one]
93 | 72 | Cc1c(Cc2ccc(-n3cccn3)cc2)cc2c(c1F)CN([C@H]1CCC[C@@H]1O)C2=O (racemic) [Example 79, rac-4-fluoro-2-(trans-2-hydroxycyclopentyl)-5-methyl-6-(4-(1H-pyrazol-1-yl)benzyl)isoindolin-1-one]
91 | 5.7 | Cc1c(Cc2ccc(-c3ccn(C)n3)cc2)cc2c(c1C)CN([C@H]1CCCC[C@@H]1O)C2=O (racemic) [Example 82, rac-2-(trans-2-hydroxycyclohexyl)-4,5-dimethyl-6-(4-(1-methyl-1H-pyrazol-3-yl)benzyl)isoindolin-1-one]
92 | 13 | Cc1c(Cc2ccc(-c3ccn(C)n3)cc2)cc2c(c1C)CN([C@H]1CCC[C@@H]1O)C2=O (racemic) [Example 83, rac-2-(trans-2-hydroxycyclopentyl)-4,5-dimethyl-6-(4-(1-methyl-1H-pyrazol-3-yl)benzyl)isoindolin-1-one]
98 | 85 | O=C1c2cc(Cc3ccc(-n4cccn4)cc3)c(C(F)(F)F)c(Cl)c2CN1[C@H]1CCC[C@@H]1O (racemic) [Example 88, rac-4-chloro-2-(trans-2-hydroxycyclopentyl)-6-(4-(1H-pyrazol-1-yl)benzyl)-5-(trifluoromethyl)isoindolin-1-one]
